Source: patent US9340577B2, “HLA binding motifs and peptides and their uses” (priority 1992, dated 2016)
No end group written: not given here.

What was measured:
Experiment in all cases: biochemical
DRB1*0901 = DRB1*0901 (Homo sapiens, UniProt P01903+P01911, A100R/A103E/D57H/D86V/F55Y/F60I/F76Y/I96F/K127E/L162R/M171V/P40D/Q125H/Q99R/R33Q/R42F/S133A/S66N/T210M/V115G/W38K/Y107V/Y59G/Y89S); format: binding
DRB1*1201 = DRB1*1201 (Homo sapiens, UniProt P01903+P01911, A100R/A169T/D57E/D86V/F55L/H45Y/K41T/L162R/M171V/P40S/Q125H/Q178H/Q39Y/Q99D/R42G/S66L/T262R/V114A/V67L/W38E/Y59H/Y61H/Y89S); format: binding
DRB1*1101 = DRB1*1101 (Homo sapiens, UniProt P01903+P01911, A100R/A169T/A87E/I96F/K41T/L162R/M171V/P40S/Q125H/Q178H/Q39Y/Q99D/R42S/S66Y/T262R/V115G/W38E); conditions: Binding affinity DRB1 *1101
DR7 (DRB1*0701) = DR7 (DRB1*0701) (Homo sapiens, UniProt P01903+P01911, A100R/A102G/A103Q/D57E/D86V/E43K/F76Y/K127E/L162R/M171V/P40G/Q125H/Q99D/R33Q/R42Y/R54Q/S133A/S66F/T210M/V115G/Y107V/Y59L/Y89S); format: binding
DRB5*0101 = DRB5*0101 (Homo sapiens, UniProt P01903+Q30154); conditions: Binding affinity DRB5 *0101
DRB1*0802 = DRB1*0802 (Homo sapiens, UniProt P01903+P01911, A100R/A103L/A169T/F76Y/H45Y/I96F/K41T/L162R/M171V/P40S/Q125H/Q178H/Q39Y/Q99D/R218S/R42G/S66Y/V115G/W38E); format: binding
DRB1*1501 = DRB1*1501 (Homo sapiens, UniProt P01903+P01911); format: binding

DRB1*1101, sequence (P01903 26-254 limits assumed, other chains not shown): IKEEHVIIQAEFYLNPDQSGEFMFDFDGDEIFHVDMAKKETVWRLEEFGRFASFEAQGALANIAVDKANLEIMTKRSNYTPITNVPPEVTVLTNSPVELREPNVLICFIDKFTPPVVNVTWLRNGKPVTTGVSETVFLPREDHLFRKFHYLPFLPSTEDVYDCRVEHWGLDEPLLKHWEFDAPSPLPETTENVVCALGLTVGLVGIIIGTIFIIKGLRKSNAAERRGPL

Row | Compound | IC50 (DRB1*0901) | IC50 (DRB1*1201) | IC50 (DRB1*1101) | IC50 (DR7 (DRB1*0701)) | IC50 (DRB5*0101) | IC50 (DRB1*0802) | IC50 (DRB1*1501)
1 | IGYYDAQKLLEKMGG [Peptide 68.0103] | > 20 µM | > 20 µM | > 20 µM | > 20 µM |  |  | 
2 | CC[C@H](C)[C@H](NC(=O)[C@@H](NC(=O)[C@@H](N)CO)C(C)C)C(=O)N[C@@H](CC(C)C)C(=O)N[C@@H](CC(C)C)C(=O)NCC(=O)N[C@@H](CCCNC(=N)N)C(=O)N[C@@H](Cc1c[nH]cn1)C(=O)N[C@@H](CO)C(=O)N[C@@H](CC(C)C)C(=O)N[C@@H](Cc1ccccc1)C(=O)N[C@@H](Cc1c[nH]cn1)C(=O)N1CCC[C@H]1C(=O)N[C@@H](CCC(=O)O)C(=O)N[C@@H](CC(=O)O)C(=O)O [Peptide 68.0067] |  | 0.091 µM |  | > 20 µM |  |  | 
3 | PRSLQCVSLHLLSND [Peptide 68.0016] | > 20 µM | 3.86 µM |  |  | > 20 µM |  | 
4 | CC[C@H](C)[C@H](NC(=O)[C@H](CO)NC(=O)[C@H](CO)NC(=O)[C@H](CC(=O)O)NC(=O)[C@H](C)NC(=O)[C@H](CC(N)=O)NC(=O)[C@@H](NC(=O)[C@H](Cc1ccc(O)cc1)NC(=O)[C@H](C)NC(=O)[C@@H](NC(=O)CN)C(C)C)[C@@H](C)CC)C(=O)N[C@@H](CCC(=O)O)C(=O)NCC(=O)N[C@@H](CC(N)=O)C(=O)N[C@@H](Cc1ccc(O)cc1)C(=O)O [Peptide 68.0110] |  | 5.49 µM | > 20 µM |  | > 20 µM | > 20 µM | 
5 | CC[C@H](C)[C@H](NC(=O)[C@H](CO)NC(=O)[C@H](CC(C)C)NC(=O)[C@@H](NC(=O)[C@H](CC(C)C)NC(=O)[C@H](CC(=O)O)NC(=O)[C@H](Cc1c[nH]c2ccccc12)NC(=O)[C@@H](N)CCSC)C(C)C)C(=O)N[C@@H](C)C(=O)N[C@@H](CC(C)C)C(=O)N[C@@H](CO)C(=O)N[C@H](C(=O)NCC(=O)N[C@@H](CS)C(=O)N[C@H](C(=O)O)[C@@H](C)O)C(C)C [Peptide 68.0001] |  | 4.58 µM | > 20 µM |  | > 20 µM | > 20 µM | 
6 | CC[C@H](C)[C@H](NC(=O)CNC(=O)[C@H](CCC(N)=O)NC(=O)[C@H](CC(C)C)NC(=O)[C@@H](NC(=O)CNC(=O)[C@H](CC(N)=O)NC(=O)[C@H](CS)NC(=O)[C@@H](NC(=O)[C@H](CC(C)C)NC(=O)[C@@H]1CCCN1C(=O)CN)C(C)C)C(C)C)C(=O)N[C@H](C(=O)N[C@@H](CO)C(=O)N[C@@H](Cc1c[nH]c2ccccc12)C(=O)O)[C@@H](C)O [Peptide 68.0080] | > 20 µM | 1.88 µM |  |  |  |  | 
7 | CSCC[C@H](NC(=O)[C@H](CCC(N)=O)NC(=O)[C@H](CC(C)C)NC(=O)CNC(=O)[C@H](CO)NC(=O)[C@@H](NC(=O)[C@@H](NC(=O)[C@@H](NC(=O)[C@@H](N)CC(=O)O)[C@@H](C)O)[C@@H](C)O)C(C)C)C(=O)N[C@@H](C)C(=O)N[C@@H](CC(C)C)C(=O)N[C@@H](CC(=O)O)C(=O)N[C@H](C(=O)N[C@@H](Cc1ccc(O)cc1)C(=O)N[C@@H](CC(N)=O)C(=O)O)C(C)C [Peptide 68.0051] |  | 0.712 µM | > 20 µM |  | > 20 µM | > 20 µM | 
8 | CSCC[C@H](NC(=O)[C@H](CC(C)C)NC(=O)[C@@H]1CCCN1C(=O)[C@@H](NC(=O)[C@H](CS)NC(=O)[C@H](CC(=O)O)NC(=O)[C@@H](NC(=O)[C@H](CCCNC(=N)N)NC(=O)[C@H](CC(C)C)NC(=O)[C@@H](NC(=O)[C@H](Cc1ccc(O)cc1)NC(=O)[C@@H](N)CC(N)=O)[C@@H](C)O)C(C)C)[C@@H](C)O)C(=O)N[C@@H](Cc1ccc(O)cc1)C(=O)N[C@@H](CO)C(=O)N[C@@H](CC(C)C)C(=O)O [Peptide 68.0112] | > 20 µM | 0.594 µM |  | > 20 µM | > 20 µM |  | 
9 | CC[C@H](C)[C@H](NC(=O)[C@@H](N)CC(C)C)C(=O)N[C@@H](CCSC)C(=O)N[C@@H](Cc1ccc(O)cc1)C(=O)N[C@@H](CO)C(=O)N[C@@H](C)C(=O)N[C@@H](Cc1c[nH]cn1)C(=O)N[C@@H](CC(=O)O)C(=O)N[C@H](C(=O)N[C@H](C(=O)N[C@H](C(=O)N[C@@H](CO)C(=O)NCC(=O)N[C@@H](CC(C)C)C(=O)N[C@@H](CCC(N)=O)C(=O)O)C(C)C)[C@@H](C)O)[C@@H](C)O [Peptide 68.0050] |  | > 20 µM | > 20 µM |  | > 20 µM | > 20 µM | 
10 | CC[C@H](C)[C@H](NC(=O)[C@H](CO)NC(=O)[C@H](CC(N)=O)NC(=O)[C@H](C)NC(=O)[C@H](CC(C)C)NC(=O)[C@H](CCC(=O)O)NC(=O)[C@H](Cc1ccccc1)NC(=O)[C@@H](N)C(C)C)C(=O)N[C@H](C(=O)N[C@@H](CC(C)C)C(=O)N1CCC[C@H]1C(=O)N[C@@H](Cc1ccccc1)C(=O)N[C@@H](CC(=O)O)C(=O)N[C@@H](CS)C(=O)N[C@@H](CCCNC(=N)N)C(=O)O)C(C)C [Peptide 68.0124] |  | 0.525 µM |  |  |  | > 20 µM | 
11 | CC[C@H](C)[C@H](NC(=O)[C@H](CCC(=O)O)NC(=O)[C@H](CC(N)=O)NC(=O)CNC(=O)[C@H](CC(=O)O)NC(=O)[C@H](CCC(=O)O)NC(=O)[C@H](CC(N)=O)NC(=O)[C@@H](NC(=O)[C@@H](NC(=O)[C@H](CO)NC(=O)[C@@H](NC(=O)[C@@H](N)Cc1ccc(O)cc1)[C@@H](C)CC)[C@@H](C)CC)[C@@H](C)CC)C(=O)N[C@@H](Cc1ccccc1)C(=O)N[C@@H](CC(N)=O)C(=O)N[C@H](C(=O)O)[C@@H](C)O [Peptide 68.0165] | > 20 µM | > 20 µM | > 20 µM | > 20 µM | > 20 µM | > 20 µM | 
12 | CC(C)C[C@H](NC(=O)CNC(=O)[C@H](Cc1ccccc1)NC(=O)[C@H](CCC(=O)O)NC(=O)[C@H](CCCCN)NC(=O)[C@@H](N)Cc1c[nH]c2ccccc12)C(=O)N[C@@H](CC(=O)O)C(=O)N[C@@H](CO)C(=O)N[C@H](C(=O)N[C@@H](CCC(=O)O)C(=O)N[C@@H](CC(C)C)C(=O)N[C@@H](C)C(=O)N[C@@H](Cc1c[nH]cn1)C(=O)N[C@@H](Cc1ccc(O)cc1)C(=O)N[C@@H](CC(=O)O)C(=O)O)C(C)C [Peptide 68.0088] |  | > 20 µM |  |  | > 20 µM |  | > 20 µM
13 | CC(C)C[C@H](NC(=O)[C@H](CCC(=O)O)NC(=O)[C@H](CCCCN)NC(=O)[C@H](C)N)C(=O)N[C@@H](CCCCN)C(=O)N[C@@H](Cc1ccccc1)C(=O)N[C@H](C(=O)N[C@H](C(=O)N[C@@H](CC(C)C)C(=O)N[C@H](C(=O)N[C@@H](Cc1ccccc1)C(=O)N[C@@H](CCCNC(=N)N)C(=O)N[C@@H](Cc1c[nH]cn1)C(=O)NCC(=O)N[C@@H](CC(=O)O)C(=O)O)C(C)C)[C@@H](C)O)C(C)C [68,0025] |  | 0.693 µM |  |  |  |  | 
14 | GAAVVHEIVRSFGTL [Peptide 68.0173] |  | 0.517 µM |  |  |  |  | 
15 | CC[C@H](C)[C@H](NC(=O)[C@H](Cc1ccccc1)NC(=O)[C@H](C)NC(=O)[C@H](CCCNC(=N)N)NC(=O)[C@H](CCC(=O)O)NC(=O)[C@H](CC(C)C)NC(=O)[C@H](Cc1ccccc1)NC(=O)[C@H](CCSC)NC(=O)[C@H](CC(C)C)NC(=O)[C@H](CCC(N)=O)NC(=O)[C@@H](N)CC(=O)O)C(=O)N[C@@H](CC(=O)O)C(=O)N1CCC[C@H]1C(=O)N[C@@H](CC(C)C)C(=O)NCC(=O)O [Peptide 68.0181] |  | 0.146 µM |  |  |  |  | 
16 | LRMMNDQLMFLERAF [Peptide 68.0131] |  | 0.28 µM |  |  |  |  | 
17 | CC[C@H](C)[C@H](NC(=O)[C@H](CO)NC(=O)[C@@H](NC(=O)CNC(=O)[C@H](CCC(=O)O)NC(=O)[C@@H]1CCCN1)C(C)C)C(=O)N[C@@H](Cc1c[nH]c2ccccc12)C(=O)N[C@@H](CC(N)=O)C(=O)N1CCC[C@H]1C(=O)N[C@H](C(=O)N[C@@H](CC(C)C)C(=O)N[C@@H](CC(C)C)C(=O)N[C@@H](Cc1c[nH]c2ccccc12)C(=O)N[C@@H](CCC(N)=O)C(=O)N1CCC[C@H]1C(=O)O)[C@@H](C)CC [Peptide 68.0033] | > 20 µM | 7.97 µM | > 20 µM |  | > 20 µM | > 20 µM | 
18 | CC[C@H](C)[C@H](NC(=O)[C@H](CO)NC(=O)[C@H](CC(N)=O)NC(=O)[C@H](C)NC(=O)[C@H](CC(C)C)NC(=O)[C@H](CCC(=O)O)NC(=O)[C@H](Cc1ccccc1)NC(=O)[C@@H](NC(=O)[C@H](CCSC)NC(=O)CN)C(C)C)C(=O)N[C@H](C(=O)N[C@@H](CC(C)C)C(=O)N1CCC[C@H]1C(=O)N[C@@H](Cc1ccccc1)C(=O)N[C@@H](CC(=O)O)C(=O)O)C(C)C [Peptide 68.0123] |  | 0.098 µM | > 20 µM |  |  |  | 
19 | CSCC[C@H](NC(=O)[C@H](CC(C)C)NC(=O)[C@H](CCC(N)=O)NC(=O)[C@H](CC(=O)O)NC(=O)[C@H](CC(N)=O)NC(=O)[C@H](CCSC)NC(=O)[C@H](CCSC)NC(=O)[C@H](CCCNC(=N)N)NC(=O)[C@H](CC(C)C)NC(=O)[C@@H](N)C(C)C)C(=O)N[C@@H](Cc1ccccc1)C(=O)N[C@@H](CC(C)C)C(=O)N[C@@H](CCC(=O)O)C(=O)N[C@@H](CCCNC(=N)N)C(=O)N[C@@H](C)C(=O)O [Peptide 68.0130] |  | 0.098 µM |  |  |  |  | 
20 | GKVFRGNKVKNAQLA [Peptide 68.0096] | > 20 µM | > 20 µM |  |  |  |  | 
